Assays:
NLRP6 inflammasome = test: Colon explants cultured with metabolites (IL-18 ELISA, caspase-1 immunoblot, gene expression); type: cell-based, mouse; details: colon explants incubated for 24 hrs, compared with spermine
Experimental: Colons were excised and washed thoroughly with PBS, homogenized in RIPA buffer containing protease inhibitors, incubated for 20 min in 4° C. and centrifuged for 20 min, 14,000 rpm at 4° C. Samples were separated on 15% acrylamide gels and transferred onto nitrocellulose membranes. Western blot analysis was performed using anti-caspase 1 p20 polyclonal antibody (Adipogen, AG-20B-0042B-C100) and Goat anti mouse antibody (Jackson ImmunoResearch, 115-035-003). Band density was calculated using ImageJ software. Colon pieces, 0.5 cm long, from the proximal colon were removed, rinsed with PBS, and weighed. The tissue explants were cultured for 24 hrs in DMEM medium containing 10% FBS, L-glutamine, penicillin, and streptomycin at 37° C. Culture medium was collected, centrifuged and the resulting supernatant stored in aliquots at -20° C. Concentrations of IL-18 in the serum or culture supernatants were measured using ELISA. […] Samples were then washed and plates were incubated with anti-mouse IL-18-biotin antibody ([…]-6 MBL) for 1 hour and HRP-Avidin (BioLegend) for 1 hour before quantification. […] For AMP induction in-vitro, 3 μg IL-18 were added to colon explants for 7 hours, then the explants were maintained in RNAlater and RNA was extracted. Tissues were preserved in RNAlater solution (Ambion) and subsequently homogenized in Tri Reagent (Fox et al.). RNA was purified according to the manufacturer's instructions. Two microgram of total RNA was used to generate cDNA (HighCapacity cDNA Reverse Transcription kit; Applied Biosystems). RealTime-PCR was performed using gene-specific primer/probe sets (Applied Biosystems) and Kapa Probe Fast qPCR kit (Kapa Biosystems) on a Viia7 instrument (Applied Biosystems). PCR conditions were 95° C. for 20 s, followed by 40 cycles of 95° C. for 3 s and 60° C. for 30 s. Data were analyzed using the deltaCt method with hprt serving as the reference housekeeping gene.

colonic AMPs [1] = test: IL-18 added to germ-free colon explants, AMP induction in-vitro; type: cell-based, mouse; details: GF colon explants, sterile conditions
Experimental: Colon explants were incubated with 70 mM of taurine (Sigma Aldrich, T0625), histamine (Sigma Aldrich, H7125) or spermine (Sigma Aldrich, S3256) for 24 hours. For AMP induction in-vitro, 3 μg IL-18 were added to colon explants for 7 hours, then the explants were maintained in RNAlater and RNA was extracted.
(§1) Tissues were preserved in RNAlater solution (Ambion) and subsequently homogenized in Tri Reagent (Fox et al.). RNA was purified according to the manufacturer's instructions. Two microgram of total RNA was used to generate cDNA (HighCapacity cDNA Reverse Transcription kit; Applied Biosystems). RealTime-PCR was performed using gene-specific primer/probe sets (Applied Biosystems) and Kapa Probe Fast qPCR kit (Kapa Biosystems) on a Viia7 instrument (Applied Biosystems). PCR conditions were 95° C. for 20 s, followed by 40 cycles of 95° C. for 3 s and 60° C. for 30 s. Data were analyzed using the deltaCt method with hprt serving as the reference housekeeping gene.

DSS colitis = test: DSS colitis; type: in vivo, mouse; details: Asc-/- mice, IL-18 i.p. prior to induction of DSS colitis
Experimental: (§2) For IL-18 rescue experiments, recombinant IL-18 (MBL, Cat#B004-2) was injected intraperitoneally at a concentration of 1 μg per mouse for 5 days, and not injected for 2 days prior to DSS treatment. IL-18 injection to Swiss Webster germ-free mice and Nlrp6^−/− mice was performed twice a day for 3 days, while the mice were kept sterile using a cage-autonomous system (Hecht et al., 2014).
Mice were treated with 1.5% (w/v) DSS (M.W.=36,000-50,000 Da; MP Biomedicals) in their drinking water for 7 days followed by regular access to water. The animals were weighed daily and monitored for signs of distress as well as rectal bleeding.
For DSS rescue experiments, mice were receiving taurine in the drinking water prior to DSS treatment in a concentration of 100 mg/ml for 14 days.
Colonoscopy was performed using a high-resolution mouse video endoscopic system (Carl Storz, Tuttlingen, Germany). The severity of colitis was blindly scored using MEICS (Murine Endoscopic Index of Colitis Severity), which is based on five parameters: granularity of mucosal surface; vascular pattern; translucency of the colon mucosa; visible fibrin; and stool consistency (Becker et al., 2006).
On the day of the assay, 4 kDa fluorescein isothiocyanate (FITC)-dextran was dissolved in phosphate buffered saline (PBS) to a concentration of 80 mg ml^−1. Mice were fasted for 4 hours prior to gavage with 150 μl dextran. Mice were anesthetized 3 hours following gavage and blood was collected, centrifuged at 1,000×g for 12 min at 4° C. Serum was collected and fluorescence was quantified at an excitation wavelength of 485 nm and 535 nm emission wavelength.
DNA was extracted from liver samples (using MoBio PowerSoil kit). DNA concentration was calculated using a standard curve of known DNA concentrations from E. coli K12. 16S qPCR using primers identifying different regions of the V6 16S gene was performed using Kappa SYBR fast mix.
Absolute number of bacteria in the samples was then approximated as DNA amount in a sample/DNA molecule mass of bacteria.

colonic AMPs [2] = test: In-vivo injection of recombinant IL-18, colonic IL-18 and AMP levels; design: species or system mouse
Experimental: as §2
Concentrations of IL-18 in the serum or culture supernatants were measured using ELISA. Plates were coated over night with IL-18 (MBL, B004-2), incubated for 4 hours with supernatant or serum. Samples were then washed and plates were incubated with anti-mouse IL-18-biotin antibody (D048-6 MBL) for 1 hour and HRP-Avidin (BioLegend) for 1 hour before quantification.
as §1

intestinal microbiota = test: In-vivo injection of recombinant IL-18, 16S microbiota analysis; design: species or system mouse
Experimental: as §2
Frozen fecal samples were processed for DNA isolation using the MoBio PowerSoil kit according to the manufacturer's instructions. For the 16S rRNA gene PCR amplification, ing of the purified fecal DNA was used for PCR amplification. Amplicons spanning the variable region 1/2 (V1/2) of the 16S rRNA gene were generated by using the following barcoded primers: Fwd 5′-XXXXXXXXAGAGTTTGATCCTGGCTCAG-3′ (SEQ ID NO: 1), Rev 5′-TGCTGCCTCCCGTAGGAGT-3′ (SEQ ID NO: 2), where X represents a barcode base. The reactions were subsequently pooled and cleaned (PCR clean kit, Promega), and the PCR products were then sequenced on an Illumina MiSeq in 500 bp paired-end method. The reads were then processed using the QIIME (Quantitative Insights Into Microbial Ecology, www(dot)qiime(dot)org) analysis pipeline as described (Caporaso et al., 2010; Elinav et al., 2011). In brief, fasta quality files and a mapping file indicating the barcode sequence corresponding to each sample were used as inputs, reads were split by samples according to the barcode, taxonomical classification was performed using the RDP-classifier, and an OTU table was created. Closed-reference OTU mapping was employed using the Greengenes database. Rarefaction was used to exclude samples with insufficient count of reads per sample. Sequences sharing 97% nucleotide sequence identity in the V2 region were binned into operational taxonomic units (97% ID OTUs). For beta-diversity, weighted unifrac measurements were plotted according to the two principal coordinates based on 1,000 reads per sample. The OTU tables used for our analyses are made accessible online.

microbiota = test: Ang4 in-vitro culture of stool microbiota under anaerobic conditions; design: species or system mouse
Experimental: Murine Ang4 was expressed in E. coli and purified as previously described (Holloway et al, 2001). Stool pellets were collected and cultured in anaerobic conditions for 8 hours with rAng4, centrifuged and further analyzed using 16S rRNA sequencing.
Frozen fecal samples were processed for DNA isolation using the MoBio PowerSoil kit according to the manufacturer's instructions. For the 16S rRNA gene PCR amplification, ing of the purified fecal DNA was used for PCR amplification. […] The reads were then processed using the QIIME (Quantitative Insights Into Microbial Ecology, www(dot)qiime(dot)org) analysis pipeline as described (Caporaso et al., 2010; Elinav et al., 2011). In brief, fasta quality files and a mapping file indicating the barcode sequence corresponding to each sample were used as inputs, reads were split by samples according to the barcode, taxonomical classification was performed using the RDP-classifier, and an OTU table was created. […] Rarefaction was used to exclude samples with insufficient count of reads per sample. […] For beta-diversity, weighted unifrac measurements were plotted according to the two principal coordinates based on 1,000 reads per sample. […]

[3] = GF Nlrp6-/- mice, sterile administration
[4] = mice lacking NLRP6, ASC, or caspase-1/11

NCCCCN [putrescine]
IL-18 in colon explants (NLRP6 inflammasome): equally suppressed

IL-18: recombinant IL-18 (MBL, Cat#B004-2)
levels of colonic AMPs (colonic AMPs [1]): restored normal levels
colitis severity (DSS colitis): diminished
colonoscopy score (DSS colitis): improved
weight loss (DSS colitis): reduced
Ang4 (colonic AMPs [2]; [3]): induced
defect in secretion of mature IL-18 protein (colonic AMPs [2]; [3]): rescued this defect
levels of colonic AMPs (colonic AMPs [2]; WT GF mice, in-vivo administration): restored normal levels
AMP levels (colonic AMPs [2]; [4]): restored
IL-18 levels (colonic AMPs [2]; [4]): restored
microbiota configuration (intestinal microbiota; Asc- and Caspase-1/11-deficient mice): significant configuration changes
aberrant microbiota composition, beta- and alpha-diversity (intestinal microbiota; Caspase-1/11-/- mice): corrected
abundance of multiple commensal bacteria (intestinal microbiota; Caspase-1/11-/- mice, relative to WT levels): restored
microbial community composition (intestinal microbiota; Nlrp6-/- mice): marked compositional changes
microbiota composition (intestinal microbiota; WT mice): not affected
dominant transmission of the dysbiotic microbiota configuration (intestinal microbiota; WT recipients cohoused with inflammasome-deficient mice): prevented
UniFrac distance to cohousing partners (intestinal microbiota; grWT(Asc-/-) mice injected with IL-18): increased

B1: Ang4: Murine Ang4 expressed in E. coli and purified; antimicrobial peptide (protein, UniProt Q3TMQ6 25-144, looked up)
Angiogenin-4: QNERYEKFLRQHYDAKPNGRDDRYCESMMKERKLTSPCKDVNTFIHGTKKNIRAICGKKGSPYGENFRISNSPFQITTCTHSGASPRPPCGYRAFKDFRYIVIACEDGWPVHFDESFISP
beta- and alpha-diversity (microbiota; anaerobic in-vitro microbiome cultures of Asc-/- mice): partially restored
impact on overall community composition (microbiota; microbiota from Asc-/- mice compared with WT mice): greater

Reference: patent publication US20190382827A1, “USE OF MICROBIAL METABOLITES FOR TREATING DISEASES” (Yeda Research and Development Co. Ltd., priority 2015, published 2019)
